Consider 15 molecules from patent US9169241B2, “Quinolinyloxyphenylsulfonamides” (Max-Planck-Gesellschaft Zur Forderung der Wissenschaften …, priority 2009, dated 2015).

Data set [1] has as its system Hs578T. Kind of data set: Matrigel outgrowth assay/branching assay. It is filed as cell-based. Conditions: Homo sapiens, Hs-578T; HS578T cell line; Table Ib; read-out: Total branching inhibition in Matrigel HS578T. The essentials: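 Cells (5000/well) were seeded onto polymerized 3 mg/ml Matrigel with compound at 3.125, 1.56 or 0.78 μM versus DMSO. Branching was imaged by inverted microscopy (5× objective) at 48, 72 and 96 h. Only concentrations giving total branching inhibition scored positive.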

The test system of data set [2] is Hs578T. Nature of the data set: Cell vitality assay (ATP assay, CellTiter-Glo). Conditions: Homo sapiens, Hs-578T; HS578T cell line, 72 h; Table Ib; read-out: IC50 ATP-Assay HS578T after 72 h. It is filed as cell-based. The essentials:
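Viability is estimated from cellular ATP after 72 h of compound treatment at 1000 cells per well. The dilution series runs 12.5, 6.25, 3.125, 1.56, 0.78, 0.39 and 0.195 μM. Half-maximal values are expressed against DMSO-treated wells.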
A general note: ATP-based viability assays read luminescence as a measure of living cells.

The subject of data set [3] is Hs578T. Nature of the data set: Wound healing migration assay. Format: cell-based. To be noted: Homo sapiens, Hs-578T; HS578T cell line; Table Ib. The method, boiled down: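 Compound exposure at 12.5, 6.25 and 3.125 μM, with DMSO control, on scratch-wounded monolayers (150000 cells/24 well, overnight). Wound closure imaged by microscopy, fixed with crystal violet after 48 h or 72 h depending on cell line; IC50 is the concentration giving 50% wound size between t0 and t48/t72.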

As to `COc1cc2c(Oc3ccc(NS(=O)(=O)c4cnc(C)[nH]4)cc3F)ccnc2cc1OCCCN1CCN(C)CC1` [Example 170, 2-Methyl-3H-imidazole-4-sulfonic acid (3-fluoro-4-{6-methoxy-7-[3-(4-methyl-piperazin-1-yl)-propoxy]-quinolin-4-yloxy}-phenyl)-amide], the melting point (usually the temperature, or range, at which the solid turns liquid) fell in the range of 215 to 217 °C. Besides, in the data set with Hs578T [1], the IC50 was in the range of 10 to 25 µM. Besides, the IC50 with Hs578T [2] lay within 12.5 to 50 µM. In the data set with Hs578T [3], this molecule showed an IC50 of 12.5 to 50 µM.
Take `COc1cc2c(Oc3ccc(NS(=O)(=O)c4sc(NC(C)=O)nc4C)cc3F)ccnc2cc1OCCCN(C)C` [Example 183, N-(5-{4-[7-(3-Dimethylamino-propoxy)-6-methoxy-quinolin-4-yloxy]-3-fluoro-phenylsulfamoyl}-4-methyl-thiazol-2-yl)-acetamide]: the melting point fell in the range of 164 to 166 °C. The IC50 in the data set with Hs578T [1] fell in the range of 10 to 25 µM. Besides, in the data set with Hs578T [2], the IC50 was 12.5 to 50 µM. In addition, the IC50 with Hs578T [3] fell in the range of 12.5 to 50 µM.
`COc1cc2c(Oc3cc(NS(=O)(=O)c4c(F)cccc4F)ccc3F)ccnc2cc1OCCCN1CCC(C)CC1` [Example 188, 2,6-Difluoro-N-(4-fluoro-3-{6-methoxy-7-[3-(4-methyl-piperidin-1-yl)-propoxy]-quinolin-4-yloxy}-phenyl)-benzenesulfonamide] returned a melting point of 185 to 186 °C. Further, the IC50 in the data set with Hs578T [1] was ≤ 10 µM. Moreover, the IC50 with Hs578T [2] was ≤ 12.5 µM. Besides, the IC50 in the data set on Hs578T [3] was ≤ 12.5 µM.
For `COc1cc2c(Oc3cc(NS(=O)(=O)c4ccccc4C(F)(F)F)ccc3F)ccnc2cc1OCCCN1CCC(C)CC1` [Example 189, N-(4-Fluoro-3-{6-methoxy-7-[3-(4-methyl-piperidin-1-yl)-propoxy]-quinolin-4-yloxy}-phenyl)-2-trifluoromethyl-benzenesulfonamide], the melting point was in the range of 175 to 177 °C. Also, the IC50 in the data set on Hs578T [1] lay in the range of 10 to 25 µM. In the data set on Hs578T [2], the IC50 was in the range of 12.5 to 50 µM. The molecule also came in with an IC50 with Hs578T [3] of 12.5 to 50 µM.
With `COc1cc2c(Oc3cc(NS(=O)(=O)c4ccccc4OC(F)(F)F)ccc3F)ccnc2cc1OCCCN1CCC(C)CC1` [Example 190, N-(4-Fluoro-3-{6-methoxy-7-[3-(4-methyl-piperidin-1-yl)-propoxy]-quinolin-4-yloxy}-phenyl)-2-trifluoromethoxy-benzenesulfonamide], the melting point fell in the range of 80 to 82 °C. Also, the IC50 in the data set on Hs578T [1] is 10 to 25 µM. The IC50 in the data set on Hs578T [2] lay within 12.5 to 50 µM. Further, the IC50 in the data set with Hs578T [3] was 12.5 to 50 µM.
`COc1cc2c(Oc3cc(NS(=O)(=O)c4c(Cl)cccc4Cl)ccc3F)ccnc2cc1OCCCN1CCC(C)CC1` [Example 192, 2,6-Dichloro-N-(4-fluoro-3-{6-methoxy-7-[3-(4-methyl-piperidin-1-yl)-propoxy]-quinolin-4-yloxy}-phenyl)-benzenesulfonamide] showed a melting point of 116 to 118 °C. Besides, in the data set with Hs578T [1], the IC50 lay in the range of 10 to 25 µM. Besides, in the data set on Hs578T [2], the IC50 was ≤ 12.5 µM. The same molecule came in with an IC50 with Hs578T [3] of 12.5 to 50 µM.
The like results for `COc1cc2c(Oc3ccc(Cl)c(NS(=O)(=O)c4ccccc4C(F)(F)F)c3)ccnc2cc1OCCCN1CCC(C)CC1` [Example 195, N-(2-Chloro-5-{6-methoxy-7-[3-(4-methyl-piperidin-1-yl)-propoxy]-quinolin-4-yloxy}-phenyl)-2-trifluoromethyl-benzenesulfonamide] were, in that order, 179 to 181 °C, 10 to 25 µM, 12.5 to 50 µM and 12.5 to 50 µM.
The like results for `COc1cc2c(Oc3ccc(Cl)c(NS(=O)(=O)c4ccccc4OC(F)(F)F)c3)ccnc2cc1OCCCN1CCC(C)CC1` [Example 196, N-(2-Chloro-5-{6-methoxy-7-[3-(4-methyl-piperidin-1-yl)-propoxy]-quinolin-4-yloxy}-phenyl)-2-trifluoromethoxy-benzenesulfonamide] were, in that order, 123 to 126 °C, 10 to 25 µM, 12.5 to 50 µM and 12.5 to 50 µM.
As to `COc1ccc2nccc(Oc3ccc(NS(=O)(=O)c4c(F)cccc4F)cc3F)c2c1` [Example 200, 2,6-Difluoro-N-[3-fluoro-4-(6-methoxy-quinolin-4-yloxy)-phenyl]-benzenesulfonamide], the melting point was 227 to 228 °C. Besides, in the data set with Hs578T [1], the IC50 was in the range of 10 to 25 µM. Further, the IC50 in the data set on Hs578T [2] lay within 12.5 to 50 µM. The molecule further came in with an IC50 in the data set with Hs578T [3] of 12.5 to 50 µM.
The molecule `COc1ccc2nccc(Oc3ccc(NS(=O)(=O)c4cc(Cl)ccc4Cl)cc3F)c2c1` [Example 203, 2,5-Dichloro-N-[3-fluoro-4-(6-methoxy-quinolin-4-yloxy)-phenyl]-benzenesulfonamide] yielded a melting point of 253 to 255 °C. Further, the IC50 with Hs578T [1] was 10 to 25 µM. In the data set on Hs578T [2], the IC50 was ≤ 12.5 µM. Moreover, the IC50 in the data set on Hs578T [3] was ≤ 12.5 µM.
Turning to `COc1ccc2nccc(Oc3ccc(NS(=O)(=O)c4c(Cl)cccc4Cl)cc3F)c2c1` [Example 204, 2,6-Dichloro-N-[3-fluoro-4-(6-methoxy-quinolin-4-yloxy)-phenyl]-benzenesulfonamide], the melting point is 219 to 221 °C. Further, in the data set on Hs578T [1], the IC50 was in the range of 10 to 25 µM. In the data set on Hs578T [2], the IC50 is 12.5 to 50 µM. This molecule also yielded an IC50 in the data set on Hs578T [3] of 12.5 to 50 µM.
`COc1ccc2nccc(Oc3ccc(NS(=O)(=O)c4ccc5ccccc5c4)cc3F)c2c1` [Example 205, Naphthalene-2-sulfonic acid [3-fluoro-4-(6-methoxy-quinolin-4-yloxy)-phenyl]-amide]: the melting point was 220 to 222 °C. Moreover, the IC50 in the data set on Hs578T [1] was in the range of 10 to 25 µM. Besides, the IC50 in the data set on Hs578T [2] was 12.5 to 50 µM. The IC50 in the data set on Hs578T [3] lay in the range of 12.5 to 50 µM.
`COc1ccc2nccc(Oc3ccc(NS(=O)(=O)C4CC4)cc3F)c2c1` [Example 206, Cyclopropanesulfonic acid [3-fluoro-4-(6-methoxy-quinolin-4-yloxy)-phenyl]-amide] displayed a melting point of 194 to 196 °C. In the data set with Hs578T [1], the IC50 is 10 to 25 µM. For the same molecule, in the data set on Hs578T [2], the IC50 lay within 12.5 to 50 µM. Also, in the data set on Hs578T [3], the IC50 fell in the range of 12.5 to 50 µM.
Consider `COc1cc2c(Oc3ccc(NS(=O)(=O)c4cc(F)ccc4F)cc3F)ccnc2cc1OCCCCOC(C)=O` [Example 211, Acetic acid 4-{4-[4-(2,5-difluoro-benzenesulfonylamino)-2-fluoro-phenoxy]-6-methoxy-quinolin-7-yloxy}-butyl ester], for which the melting point is 165 to 167 °C. Also, the IC50 in the data set with Hs578T [1] lay in the range of 10 to 25 µM. In addition, the IC50 with Hs578T [2] was ≤ 12.5 µM. For the same molecule, the IC50 in the data set on Hs578T [3] is ≤ 12.5 µM.
`COc1cc2c(Oc3ccc(NS(=O)(=O)c4ccccc4C(F)(F)F)cc3F)ccnc2cc1OCCCCOC(C)=O` [Example 212, Acetic acid 4-{4-[2-fluoro-4-(2-trifluoromethyl-benzenesulfonylamino)-phenoxy]-6-methoxy-quinolin-7-yloxy}-butyl ester]: the melting point lay in the range of 143 to 145 °C. In addition, the IC50 with Hs578T [1] is 10 to 25 µM. In addition, in the data set with Hs578T [2], the IC50 fell in the range of 12.5 to 50 µM. In the data set on Hs578T [3], the IC50 fell in the range of 12.5 to 50 µM.
